Patent publication US8362052B2, “Isoindolin-1-one derivative” (MSD K.K., priority 2009, dated 2013)
pEC50: −log10 of the molar value.

Molecular target: T1, human GPR120 (Homo sapiens, UniProt Q5NUL3)
T1 construct: expressed in transfected cells
T1 sequence (Q5NUL3 1-361): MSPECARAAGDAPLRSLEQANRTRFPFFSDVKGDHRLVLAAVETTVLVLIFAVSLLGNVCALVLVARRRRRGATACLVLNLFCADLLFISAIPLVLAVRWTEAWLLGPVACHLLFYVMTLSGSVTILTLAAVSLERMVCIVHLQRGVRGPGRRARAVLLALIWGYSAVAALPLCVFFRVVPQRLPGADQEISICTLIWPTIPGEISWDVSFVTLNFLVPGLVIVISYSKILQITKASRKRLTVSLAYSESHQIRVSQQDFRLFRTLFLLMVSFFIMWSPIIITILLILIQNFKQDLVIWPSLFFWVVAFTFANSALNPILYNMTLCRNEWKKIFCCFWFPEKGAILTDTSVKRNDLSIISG
Test: Measurement of intracellular calcium concentration (FLIPR), GPR120 agonist action
Assay type: cell-based
Settings: human GPR120 expression CHO cells, Fluo-4 AM
Source text: Primers were synthesized in the domains on the opposite sides of the base sequences of the ORFs of the known GPCR and GPR120 in GenBank Accession NOs. NM 181745 (human) and NM 181748 (mouse), and the genes were cloned by RT-PCR. The base sequences of the primers used are described below. The restriction enzymes, BamHI and EcoRI, recognition sites were introduced for subcloning, respectively.
Using Lipofectamine 2000 (Invitrogen), cDNA of GPR120 receptor was transfected into CHO/NFAT-BLA cells, and drug-resistant cells were isolated to obtain GPR120 stable expression strains. The GPR120-expressed CHO cells were cultured in DMEM/F12 medium containing 10% fetal bovine serum, 100 units/ml penicillin, 0.1 mg/ml streptomycin sulfate, 250 μg/ml Zeocin, 500 μg/mL Geneticin and 15 mM HEPES.
On the day before the measurement day, 4 μM Fluo-4 AM (fluorescence calcium indicator reagent) was incubated to be introduced into the human GPR120 expression CHO cells plated at 20000 cells per well of a 96-well black plate (ViewPlate; Packard) in the presence of 2.5 mM probenecid in a CO2 incubator for 1 hour. […] Variations in the intracellular calcium concentration were measured by Fluorescence Imaging Plate Reader (FLIPR; Molecular Devices) to examine the agonist action, and EC50 values were calculated.

pEC50	SMILES
6.07	O=C1c2ccccc2CN1c1cc(F)cc(Oc2cccnc2)c1 [Example 1, 2-[3-fluoro-5-(pyridin-3-yloxy)phenyl]isoindolin-1-one]
6.74	O=S1(=O)c2ccccc2CN1c1cc(F)cc(Oc2cccnc2)c1 [Example 2, 2-[3-fluoro-5-(pyridin-3-yloxy)phenyl]-2,3-dihydro-1,2-benzisothiazol-1,1-dioxide]
